Consider 18 compounds from patent publication US20250179088A9 (ZYMEWORKS BC INC., priority 2020, published 2025).

The EC50 is the concentration at which the effect is half-maximal. A low value points to greater potency.

One assay has as its target T1, TLR7 (Homo sapiens, UniProt Q9NYK1).
T1 sequence (Q9NYK1 27-1049): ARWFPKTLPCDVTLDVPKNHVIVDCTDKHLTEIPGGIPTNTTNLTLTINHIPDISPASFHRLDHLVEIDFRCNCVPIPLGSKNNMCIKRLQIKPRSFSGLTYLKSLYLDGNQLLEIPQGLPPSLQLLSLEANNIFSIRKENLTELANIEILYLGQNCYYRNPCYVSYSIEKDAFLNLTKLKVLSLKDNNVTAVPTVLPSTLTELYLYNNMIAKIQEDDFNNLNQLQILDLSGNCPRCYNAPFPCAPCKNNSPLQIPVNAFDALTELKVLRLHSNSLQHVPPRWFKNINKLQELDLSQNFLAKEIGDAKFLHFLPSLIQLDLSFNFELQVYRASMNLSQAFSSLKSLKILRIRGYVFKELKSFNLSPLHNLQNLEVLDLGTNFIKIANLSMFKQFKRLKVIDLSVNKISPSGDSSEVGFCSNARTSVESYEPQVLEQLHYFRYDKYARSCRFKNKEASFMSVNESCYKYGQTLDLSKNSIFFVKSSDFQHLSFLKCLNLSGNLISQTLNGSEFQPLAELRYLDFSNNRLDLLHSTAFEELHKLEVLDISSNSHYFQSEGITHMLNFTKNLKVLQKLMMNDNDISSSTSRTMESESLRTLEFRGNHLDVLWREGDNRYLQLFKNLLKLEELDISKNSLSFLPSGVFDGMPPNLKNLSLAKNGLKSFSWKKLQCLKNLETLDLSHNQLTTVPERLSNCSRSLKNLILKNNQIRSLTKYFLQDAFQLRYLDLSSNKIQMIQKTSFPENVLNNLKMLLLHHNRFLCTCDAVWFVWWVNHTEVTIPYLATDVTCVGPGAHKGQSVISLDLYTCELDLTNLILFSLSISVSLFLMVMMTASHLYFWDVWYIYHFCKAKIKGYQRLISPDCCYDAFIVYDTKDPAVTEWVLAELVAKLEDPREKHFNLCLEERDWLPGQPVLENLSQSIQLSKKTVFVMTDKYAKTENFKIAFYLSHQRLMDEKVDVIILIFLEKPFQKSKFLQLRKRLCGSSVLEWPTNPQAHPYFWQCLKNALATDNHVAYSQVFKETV
In words: Reporter gene assay, HEK-Blue TLR7 reporter cells (SEAP). For orientation: In a reporter assay the amount or activity of a reporter protein is the signal.

The target of another assay is T2, TLR8 (Homo sapiens, UniProt Q9NR97).
T2 sequence (Q9NR97 27-1041): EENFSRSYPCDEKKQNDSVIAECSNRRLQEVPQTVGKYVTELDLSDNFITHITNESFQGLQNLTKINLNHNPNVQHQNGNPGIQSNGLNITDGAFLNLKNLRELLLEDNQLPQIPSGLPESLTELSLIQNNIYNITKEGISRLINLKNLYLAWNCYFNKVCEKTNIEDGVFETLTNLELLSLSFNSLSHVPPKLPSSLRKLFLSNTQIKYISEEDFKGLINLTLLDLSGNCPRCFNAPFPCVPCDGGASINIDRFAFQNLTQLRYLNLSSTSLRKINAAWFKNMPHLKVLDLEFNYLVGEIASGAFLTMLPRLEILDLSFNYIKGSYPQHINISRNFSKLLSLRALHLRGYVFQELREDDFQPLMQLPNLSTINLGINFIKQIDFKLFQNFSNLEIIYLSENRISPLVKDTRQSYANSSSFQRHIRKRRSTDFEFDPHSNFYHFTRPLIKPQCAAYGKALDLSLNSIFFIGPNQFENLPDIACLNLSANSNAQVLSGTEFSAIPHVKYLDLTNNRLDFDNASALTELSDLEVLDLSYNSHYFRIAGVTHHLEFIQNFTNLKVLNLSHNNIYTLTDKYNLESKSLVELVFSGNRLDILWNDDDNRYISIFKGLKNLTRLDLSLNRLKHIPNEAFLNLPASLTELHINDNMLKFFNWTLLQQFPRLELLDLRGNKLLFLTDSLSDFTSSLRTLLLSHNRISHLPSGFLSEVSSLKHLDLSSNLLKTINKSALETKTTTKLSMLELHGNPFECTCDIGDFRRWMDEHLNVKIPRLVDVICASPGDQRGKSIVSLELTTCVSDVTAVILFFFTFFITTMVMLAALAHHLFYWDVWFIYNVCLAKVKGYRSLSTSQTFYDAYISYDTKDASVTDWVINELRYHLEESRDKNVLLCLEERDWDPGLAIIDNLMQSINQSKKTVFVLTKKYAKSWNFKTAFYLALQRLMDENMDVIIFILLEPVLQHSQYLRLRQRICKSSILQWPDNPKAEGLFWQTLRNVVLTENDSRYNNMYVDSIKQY
Nature of the assay: Reporter gene assay, HEK-Blue TLR8 reporter cells (SEAP).

The next assay has as its system PBMCs. In words: PBMC assay, IL-6 release (HTRF). In kind it is cell-based. To be noted: PBMCs from healthy donors, overnight, IL-6 induction by HTRF, average of quadruplicate. As for the experimental part: Whole peripheral blood was obtained from healthy donors. PBMCs were isolated from peripheral blood by density gradient centrifugation. […] The plasma layer containing PBMCs was poured into a new tube and washed twice. Isolated PBMCs were either used fresh or thawed from previously frozen. 1×10^5 PBMCs were cultured with titrating concentrations of compounds of Formula I overnight followed by assaying for cytokines by homogeneous time resolved fluorescence (HTRF).

Description for TLR7: (§1) 3×10^4 HEK-Blue™ TLR7 or 3×10^4 TLR8 reporter cells (InvivoGen, San Diego, CA) were treated with titrated (4-fold) amounts of test compound. […] Cells were incubated overnight at 37° C. and 5% CO2, then absorbance (620 and 655 nm) was read on a Synergy™ H1 microplate reader.
Description for TLR8: as §1

For the compound `CCNCc1nc2c(N)nc3ccsc3c2n1Cc1ccc(CN(CC)CC)cc1` [Compound 269, 1-(4-((diethylamino)methyl)benzyl)-2-((ethylamino)methyl)-1H-imidazo[4,5-d]thieno [3,2-b]pyridin-4-amine], the EC50 on TLR7 was 0.186 µM; on TLR8 it was more than 1 µM; with PBMCs, 0.557 µM.
Taken in the same sequence, the figures for `CCCCc1nc2c(N)nc3ccsc3c2n1Cc1cccc(CN2CCN(C(=O)OC(C)(C)C)CC2)c1` [Compound 196, tert-butyl 4-(3-((4-amino-2-butyl-1H-imidazo[4,5-d]thieno[3,2-b]pyridin-1-yl)methyl)benzyl)piperazine-1-carboxylate] were more than 1 µM, more than 1 µM and more than 1 µM.
`CCCCc1nc2c(N)nc3ccsc3c2n1Cc1cccc(CNCc2ccc(CO)cc2)c1` [Compound 204, (4-(((3-((4-amino-2-butyl-1H-imidazo[4,5-d]thieno[3,2-b]pyridin-1-yl)methyl)benzyl)amino)methyl)phenyl)methanol]: the EC50 at TLR7 was 0.068 µM; on TLR8, 0.31 µM; in the assay with PBMCs it was 0.2 µM.
The corresponding values for `CCCCc1nc2c(N)nc3ccsc3c2n1Cc1cccc(CN2CCC(c3ccncc3)CC2)c1` [Compound 198, 2-butyl-1-(3-((4-(pyridin-4-yl)piperidin-1-yl)methyl)benzyl)-1H-imidazo[4,5-d]thieno [3,2-b]pyridin-4-amine] are 0.22 µM, more than 1 µM and 0.28 µM.
As for `CCCCc1nc2c(N)nc3ccsc3c2n1Cc1nc(CN2CCNCC2)cs1` [Compound 242, 2-butyl-1-((4-(piperazin-1-ylmethyl)thiazol-2-yl)methyl)-1H-imidazo[4,5-d]thieno[3,2-b]pyridin-4-amine], the EC50 on TLR7 was 0.15 µM; at TLR8 it was more than 1 µM; with PBMCs, more than 1 µM.
As for `CCCCc1nc2c(N)nc3ccsc3c2n1Cc1ccccc1CN(CC)CC` [Compound 221, 2-butyl-1-(2-((diethylamino)methyl)benzyl)-1H-imidazo[4,5-d]thieno[3,2-b]pyridin-4-amine], the EC50 at TLR7, at TLR8 and with PBMCs was more than 1 µM each time.
As for `CCCCc1nc2c(N)nc3ccsc3c2n1Cc1ccc(CNCC2CCN(C(=O)OC(C)(C)C)CC2)cc1` [Compound 264, tert-butyl 4-(((4-((4-amino-2-butyl-1H-imidazo[4,5-d]thieno[3,2-b]pyridin-1-yl)methyl)benzyl)amino)methyl)piperidine-1-carboxylate], the EC50 at TLR7 is 0.083 µM; at TLR8, more than 1 µM; with PBMCs, 0.153 µM.
In the case of `CCCCc1nc2c(N)nc3ccsc3c2n1CCCCCN1CCC(c2ccncc2)CC1` [Compound 174, 2-butyl-1-(5-(4-(pyridin-4-yl)piperidin-1-yl)pentyl)-1H-imidazo[4,5-d]thieno[3,2-b]pyridin-4-amine], the results for the EC50 on TLR7, at TLR8 and in the assay with PBMCs were 0.021 µM, more than 1 µM and 0.078 µM, respectively.
The corresponding values for `CCCCc1nc2c(N)nc3ccsc3c2n1Cc1cccc(CNCCCCCO)c1` [Compound 203, 5-((3-((4-amino-2-butyl-1H-imidazo[4,5-d]thieno[3,2-b]pyridin-1-yl)methyl)benzyl)amino)pentan-1-ol] are 0.29 µM, 0.12 µM and 0.16 µM.
For the compound `CCCCc1nc2c(N)nc3ccsc3c2n1Cc1ccc(CN2CCN(CCNC(=O)OC(C)(C)C)CC2)cc1` [Compound 165, tert-butyl (2-(4-(4-((4-amino-2-butyl-1H-imidazo[4,5-d]thieno[3,2-b]pyridin-1-yl)methyl)benzyl)piperazin-1-yl)ethyl)carbamate], the EC50 at TLR7 is 0.015 µM; on TLR8 it was more than 1 µM; with PBMCs it was 0.065 µM.
Consider `CCCCc1nc2c(N)nc3ccsc3c2n1Cc1cccc(CN(CC)CC)c1` [Compound 199, 2-butyl-1-(3-((diethylamino)methyl)benzyl)-1H-imidazo[4,5-d]thieno[3,2-b]pyridin-4-amine], for which the EC50 amounted to 0.13 µM on TLR7, 0.43 µM at TLR8 and 0.33 µM in the assay on PBMCs.
For the compound `CCCCc1nc2c(N)nc3ccsc3c2n1CCCCCN1CCN(CCN2CCOCC2)CC1` [Compound 176, 2-butyl-1-(5-(4-(2-morpholinoethyl)piperazin-1-yl)pentyl)-1H-imidazo[4,5-d]thieno[3,2-b]pyridin-4-amine], the EC50 on TLR7 is 0.033 µM; on TLR8 it was more than 1 µM; in the assay with PBMCs, 0.058 µM.
In the case of `CCCCc1nc2c(N)nc3ccsc3c2n1Cc1nc(CNCc2cc[nH]c2)cs1` [Compound 231, 1-((4-((((1H-pyrrol-3-yl)methyl)amino)methyl)thiazol-2-yl)methyl)-2-butyl-1H-imidazo[4,5-d]thieno[3,2-b]pyridin-4-amine], the EC50 came to 0.11 µM on TLR7, 0.58 µM at TLR8 and 0.92 µM with PBMCs.
Regarding `CCCCc1nc2c(N)nc3ccsc3c2n1Cc1ccc(C=O)cc1` [Compound 164, 4-((4-amino-2-butyl-1H-imidazo[4,5-d]thieno[3,2-b]pyridin-1-yl)methyl)benzaldehyde], the EC50 at TLR7, on TLR8 and with PBMCs was more than 1 µM in each case.
For the compound `CCCCc1nc2c(N)nc3ccsc3c2n1Cc1nc(CO)cs1` [Compound 228, (2-((4-amino-2-butyl-1H-imidazo[4,5-d]thieno[3,2-b]pyridin-1-yl)methyl)thiazol-4-yl)methanol], the EC50 at TLR7 was 0.22 µM; at TLR8 it was more than 1 µM; with PBMCs, more than 1 µM.
Take `CCCCc1nc2c(N)nc3ccsc3c2n1Cc1cccc(CNN)c1` [Compound 206, 2-butyl-1-(3-(hydrazineylmethyl)benzyl)-1H-imidazo[4,5-d]thieno[3,2-b]pyridin-4-amine]: the EC50 on TLR7 is 0.28 µM; at TLR8, more than 1 µM; with PBMCs it was more than 1 µM.
With `CCCCc1nc2c(N)nc3ccsc3c2n1CCCCCNCc1ccc(CO)cc1` [Compound 179, (4-(((5-(4-amino-2-butyl-1H-imidazo[4,5-d]thieno[3,2-b]pyridin-1-yl)pentyl)amino)methyl)phenyl)methanol], the EC50 at TLR7 amounted to 0.012 µM; on TLR8, 0.26 µM; in the assay with PBMCs it was 0.076 µM.
For `CCCCc1nc2c(N)nc3ccsc3c2n1Cc1nc(CN2CCN(CCN3CCOCC3)CC2)cs1` [Compound 234, 2-butyl-1-((4-((4-(2-morpholinoethyl)piperazin-1-yl)methyl)thiazol-2-yl)methyl)-1H-imidazo[4,5-d]thieno[3,2-b]pyridin-4-amine], the EC50 at TLR7 was 0.27 µM; on TLR8 it was more than 1 µM; with PBMCs it was more than 1 µM.
